Data: the NIST ThermoML archive (doi:10.1016/j.jct.2019.02.020)

Experiment: mn = molality of the nth substance listed, in mol/kg
Settings: 100 kPa, Liquid; for viscosity: Falling or rolling sphere viscometry; for mass density: Vibrating tube method

O=S(=O)(O)O [sulfuric acid] + O
Settings	mass density [kg/m3]	viscosity [mPa·s]
283.15 K, m1 = 0.05	1003.29	1.322
283.15 K, m1 = 0.1	1006.64	1.326
283.15 K, m1 = 0.1498	1009.9	1.339
283.15 K, m1 = 0.1997	1013.13	1.352
283.15 K, m1 = 0.2501	1016.29	1.363
283.15 K, m1 = 0.2999	1019.54	1.375
283.15 K, m1 = 0.3312	–	1.386
283.15 K, m1 = 0.3996	1025.76	1.399
283.15 K, m1 = 0.5001	1031.92	1.415
283.15 K, m1 = 0.6672	–	1.48
283.15 K, m1 = 0.9962	–	1.502
283.15 K, m1 = 1.331	–	1.653
283.15 K, m1 = 1.669	–	1.733
283.15 K, m1 = 2	–	1.817
283.15 K, m1 = 2.327	–	1.914
283.15 K, m1 = 2.667	–	2.017
283.15 K, m1 = 2.994	–	2.154
283.15 K, m1 = 3.33	–	2.28
283.15 K, m1 = 3.667	–	2.331
288.15 K, m1 = 0.05	1002.61	1.151
288.15 K, m1 = 0.1	1005.89	1.156
288.15 K, m1 = 0.1498	1009.09	1.167
288.15 K, m1 = 0.1997	1012.25	1.179
288.15 K, m1 = 0.2501	1015.35	1.19
288.15 K, m1 = 0.2999	1018.53	1.2
288.15 K, m1 = 0.3312	–	1.212
288.15 K, m1 = 0.3996	1024.63	1.221
288.15 K, m1 = 0.5001	1030.68	1.236
288.15 K, m1 = 0.6672	–	1.294
288.15 K, m1 = 0.9962	–	1.321
288.15 K, m1 = 1.331	–	1.45
288.15 K, m1 = 1.669	–	1.519
288.15 K, m1 = 2	–	1.589
288.15 K, m1 = 2.327	–	1.672
288.15 K, m1 = 2.667	–	1.768
288.15 K, m1 = 2.994	–	1.882
288.15 K, m1 = 3.33	–	1.978
288.15 K, m1 = 3.667	–	2.036
293.15 K, m1 = 0.05	1001.64	1.014
293.15 K, m1 = 0.1	1004.86	1.019
293.15 K, m1 = 0.1498	1007.99	1.029
293.15 K, m1 = 0.1997	1011.1	1.04
293.15 K, m1 = 0.2501	1014.14	1.049
293.15 K, m1 = 0.2999	1017.27	1.058
293.15 K, m1 = 0.3312	1019.13	1.07
293.15 K, m1 = 0.3996	1023.27	1.077
293.15 K, m1 = 0.5001	1029.22	1.091
293.15 K, m1 = 0.6672	1039.1	1.144
293.15 K, m1 = 0.9962	1057.95	1.172
293.15 K, m1 = 1.331	1076.44	1.282
293.15 K, m1 = 1.669	1094.43	1.343
293.15 K, m1 = 2	1111.51	1.406
293.15 K, m1 = 2.327	1127.75	1.476
293.15 K, m1 = 2.667	1143.44	1.569
293.15 K, m1 = 2.994	1161.33	1.663
293.15 K, m1 = 3.33	1173.91	1.725
293.15 K, m1 = 3.667	1188.61	1.794
298.15 K, m1 = 0.05	1000.42	0.9019
298.15 K, m1 = 0.1	1003.57	0.9068
298.15 K, m1 = 0.1498	1006.66	0.916
298.15 K, m1 = 0.1997	1009.71	0.9259
298.15 K, m1 = 0.2501	1012.71	0.9338
298.15 K, m1 = 0.2999	1015.79	0.9443
298.15 K, m1 = 0.3312	–	0.9534
298.15 K, m1 = 0.3996	1021.7	0.9597
298.15 K, m1 = 0.5001	1027.57	0.9715
298.15 K, m1 = 0.6672	–	1.024
298.15 K, m1 = 0.9962	–	1.049
298.15 K, m1 = 1.331	–	1.144
298.15 K, m1 = 1.669	–	1.197
298.15 K, m1 = 2	–	1.252
298.15 K, m1 = 2.327	–	1.314
298.15 K, m1 = 2.667	–	1.391
298.15 K, m1 = 2.994	–	1.474
298.15 K, m1 = 3.33	–	1.534
298.15 K, m1 = 3.667	–	1.596
303.15 K, m1 = 0.05	998.96	0.8093
303.15 K, m1 = 0.1	1002.07	0.8127
303.15 K, m1 = 0.1498	1005.1	0.8218
303.15 K, m1 = 0.1997	1008.12	0.8307
303.15 K, m1 = 0.2501	1011.07	0.8376
303.15 K, m1 = 0.2999	1014.11	0.8489
303.15 K, m1 = 0.3312	1015.94	0.8561
303.15 K, m1 = 0.3996	1019.95	0.8615
303.15 K, m1 = 0.5001	1025.74	0.8719
303.15 K, m1 = 0.6672	1035.36	0.9256
303.15 K, m1 = 0.9962	1053.74	0.9448
303.15 K, m1 = 1.331	1071.78	1.026
303.15 K, m1 = 1.669	1089.37	1.073
303.15 K, m1 = 2	1106.08	1.123
303.15 K, m1 = 2.327	1122.01	1.179
303.15 K, m1 = 2.667	1138.64	1.244
303.15 K, m1 = 2.994	1155.01	1.319
303.15 K, m1 = 3.33	1167.41	1.374
303.15 K, m1 = 3.667	1181.92	1.429
308.15 K, m1 = 0.05	997.29	0.7303
308.15 K, m1 = 0.1	1000.35	0.7339
308.15 K, m1 = 0.1498	1003.35	0.7412
308.15 K, m1 = 0.1997	1006.33	0.7497
308.15 K, m1 = 0.2501	1009.25	0.7567
308.15 K, m1 = 0.2999	1012.25	0.7652
308.15 K, m1 = 0.3312	–	0.7753
308.15 K, m1 = 0.3996	1018.02	0.7799
308.15 K, m1 = 0.5001	1023.74	0.7884
308.15 K, m1 = 0.6672	–	0.8371
308.15 K, m1 = 0.9962	–	0.8554
308.15 K, m1 = 1.331	–	0.9337
308.15 K, m1 = 1.669	–	0.9775
308.15 K, m1 = 2	–	1.016
308.15 K, m1 = 2.327	–	1.059
308.15 K, m1 = 2.667	–	1.116
308.15 K, m1 = 2.994	–	1.188
308.15 K, m1 = 3.33	–	1.238
308.15 K, m1 = 3.667	–	1.29
313.15 K, m1 = 0.05	995.42	0.6585
313.15 K, m1 = 0.1	998.45	0.6663
313.15 K, m1 = 0.1498	1001.41	0.6726
313.15 K, m1 = 0.1997	1004.36	0.6808
313.15 K, m1 = 0.2501	1007.25	0.6869
313.15 K, m1 = 0.2999	1010.22	0.698
313.15 K, m1 = 0.3312	–	0.7043
313.15 K, m1 = 0.3996	1015.94	0.7078
313.15 K, m1 = 0.5001	1021.61	0.716
313.15 K, m1 = 0.6672	–	0.7631
313.15 K, m1 = 0.9962	–	0.7748
313.15 K, m1 = 1.331	–	0.8534
313.15 K, m1 = 1.669	–	0.8905
313.15 K, m1 = 2	–	0.9243
313.15 K, m1 = 2.327	–	0.9706
313.15 K, m1 = 2.667	–	1.019
313.15 K, m1 = 2.994	–	1.077
313.15 K, m1 = 3.33	–	1.125
313.15 K, m1 = 3.667	–	1.171
318.15 K, m1 = 0.05	993.38	0.6063
318.15 K, m1 = 0.1	996.37	0.6087
318.15 K, m1 = 0.1498	999.3	0.6141
318.15 K, m1 = 0.1997	1002.21	0.6219
318.15 K, m1 = 0.2501	1005.09	0.6274
318.15 K, m1 = 0.2999	1008.03	0.6362
318.15 K, m1 = 0.3312	–	0.6443
318.15 K, m1 = 0.3996	1013.7	0.6502
318.15 K, m1 = 0.5001	1019.32	0.6543
318.15 K, m1 = 0.6672	–	0.6978
318.15 K, m1 = 0.9962	–	0.7101
318.15 K, m1 = 1.331	–	0.7819
318.15 K, m1 = 1.669	–	0.8167
318.15 K, m1 = 2	–	0.8473
318.15 K, m1 = 2.327	–	0.8914
318.15 K, m1 = 2.667	–	0.9455
318.15 K, m1 = 2.994	–	0.9872
318.15 K, m1 = 3.33	–	1.027
318.15 K, m1 = 3.667	–	1.07
